Assays:
[1] = tested on: MV411 cells; experiment: MV411 caspase activity assay (Caspase-Glo 3/7); format: cell-based; details: Homo sapiens, MV4-11, 6 h, 6-hr treatment, caspase 3/7 induction
How it was run: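 MV411 AML cells (3000/well) were plated overnight, then treated with compound for 6 h at 37 °C. Caspase-3/7 activity was read as luminescence after 30 min with Caspase-Glo 3/7 reagent at room temperature.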

[2] = target: T1, CDK9/CycT1 (Homo sapiens (Human), UniProt P50750); experiment: CDK9 kinase assay, ATP concentration at Km (mobility shift, Caliper LC3000); format: biochemical; details: 6 μM ATP, 3 nM CDK9/CycT1; read-out: CDK9 ATP conc. at Km (IC50)
How it was run: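 […], compound sat 15 min with enzyme mix: 3 nM CDK9/CycT1, 1.5 µM FITC-GSRTPMY substrate, 6 µM ATP, pH 7.2 HEPES buffer.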

[3] = tested on: phosphorylation of RNA Polymerase II (RNAPII) at the Ser2 site in MCF7 cells; experiment: MCF7 pSer2 RNAPII MOA assay (immunofluorescence); format: cell-based; details: Homo sapiens, MCF7, 6 h, 6-hr treatment, read-out: p-Ser 2 RNAPII (IC50)
How it was run: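 Phospho-Ser2 RNAPII was measured by immunofluorescence (Alexa Fluor 488, DAPI counterstain) with plate cytometer read-out. Before staining, cells were fixed with paraformaldehyde and permeabilized with Triton. Exposure was 6 h at 37° C. to CDK9 inhibitors over 7 points (3 μM to 0.004 μM) in MCF7 cells seeded at 2500/well the previous day.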

[4] = target: T1, CDK9/CycT1; experiment: CDK9 kinase assay, high ATP concentration (5 mM ATP); format: biochemical; details: 1.5 nM CDK9, read-out: CDK9 High ATP conc. (IC50)
How it was run: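 Caliper mobility-shift read-out of phosphorylated vs unphosphorylated FITC-peptide (1.5 μM), giving percent turnover. Final 1.5 nM CDK9/CycT1 and 5 mM ATP in 50 mM HEPES pH 7.2, 1 mM DTT, 10 mM MgCl2; compound preincubated 15 min, reaction 90 min at 25° C, stopped with EDTA.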

T1 sequence (P50750 whole entry): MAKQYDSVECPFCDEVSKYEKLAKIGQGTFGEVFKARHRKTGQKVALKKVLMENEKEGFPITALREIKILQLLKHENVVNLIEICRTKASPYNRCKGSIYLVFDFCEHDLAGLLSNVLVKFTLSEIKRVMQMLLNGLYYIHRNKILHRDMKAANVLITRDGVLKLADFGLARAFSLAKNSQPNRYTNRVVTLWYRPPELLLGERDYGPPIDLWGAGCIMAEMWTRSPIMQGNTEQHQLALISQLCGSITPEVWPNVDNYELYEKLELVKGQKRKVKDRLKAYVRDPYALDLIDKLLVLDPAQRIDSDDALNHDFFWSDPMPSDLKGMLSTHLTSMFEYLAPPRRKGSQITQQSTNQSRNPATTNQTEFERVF
T1 sequence (O60563 whole entry partner): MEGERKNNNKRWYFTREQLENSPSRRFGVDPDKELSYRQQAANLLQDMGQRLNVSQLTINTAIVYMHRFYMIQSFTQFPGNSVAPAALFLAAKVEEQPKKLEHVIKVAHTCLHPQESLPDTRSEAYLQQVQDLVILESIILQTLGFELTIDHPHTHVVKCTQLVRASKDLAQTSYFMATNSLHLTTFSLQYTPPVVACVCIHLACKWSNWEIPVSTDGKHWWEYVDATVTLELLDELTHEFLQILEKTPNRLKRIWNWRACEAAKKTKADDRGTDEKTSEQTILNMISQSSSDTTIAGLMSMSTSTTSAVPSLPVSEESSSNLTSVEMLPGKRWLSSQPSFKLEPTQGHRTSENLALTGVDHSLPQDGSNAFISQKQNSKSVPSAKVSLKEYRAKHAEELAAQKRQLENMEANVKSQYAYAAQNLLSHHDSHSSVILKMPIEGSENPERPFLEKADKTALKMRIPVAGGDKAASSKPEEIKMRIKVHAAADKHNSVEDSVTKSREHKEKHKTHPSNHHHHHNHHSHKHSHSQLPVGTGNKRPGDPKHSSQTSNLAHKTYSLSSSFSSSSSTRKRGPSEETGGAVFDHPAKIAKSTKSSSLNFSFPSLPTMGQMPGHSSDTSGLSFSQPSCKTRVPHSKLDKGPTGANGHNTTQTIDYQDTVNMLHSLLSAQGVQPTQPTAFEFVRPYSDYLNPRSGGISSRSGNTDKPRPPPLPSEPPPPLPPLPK

| IC50 [1] | IC50 [2] | IC50 [3] | IC50 [4] | SMILES |
| --- | --- | --- | --- | --- |
| 543 nM | 4 nM | 338 nM | 213 nM | CC(=O)N[C@@H]1CCC[C@H](C(=O)Nc2cc(-c3cnn4c3CCCC4)c(C)cn2)C1 [Example 77, (1S,3R)-3-acetamido-N-(5-methyl-4-(4,5,6,7-tetrahydropyrazolo[1,5-a]pyridin-3-yl)pyridin-2-yl)cyclohexanecarboxamide] |
| 1230 nM | < 3 nM | 720 nM | 60 nM | CC(=O)N[C@@H]1CCC[C@H](C(=O)Nc2cc(-c3cnn4c3CCCC4O)c(Cl)cn2)C1 (stereo partly drawn) [Example 78, (1S,3R)-3-acetamido-N-(5-chloro-4-(7-hydroxy-4,5,6,7-tetrahydropyrazolo[1,5-a]pyridin-3-yl)pyridin-2-yl)cyclohexanecarboxamide] |
| 7130 nM | < 3 nM | > 2630 nM | 85 nM | CC(=O)N[C@@H]1CCC[C@H](C(=O)Nc2cc(-c3cn[nH]c3CCCCO)c(Cl)cn2)C1 [Example 78a, (1S,3R)-3-acetamido-N-(5-chloro-4-(5-(4-hydroxybutyl)-1H-pyrazol-4-yl)pyridin-2-yl)cyclohexanecarboxamide] |
| 896 nM | 8 nM | 665 nM | 554 nM | CC(=O)N[C@H]1CCC[C@@H](C(=O)Nc2cc(-c3cnn4c3CC(C)(C)C4)c(F)cn2)C1 [Example 81, (1R,3S)-3-acetamido-N-(4-(5,5-dimethyl-5,6-dihydro-4H-pyrrolo[1,2-b]pyrazol-3-yl)-5-fluoropyridin-2-yl)cyclohexanecarboxamide] |
| 124 nM | < 4 nM | 174 nM | 22 nM | CC(=O)N[C@@H]1CCC[C@H](C(=O)Nc2cc(-c3cnn4c3CC(C)(C)C4O)c(Cl)cn2)C1 (stereo partly drawn) [Example 82, (1S,3R)-3-acetamido-N-(5-chloro-4-(6-hydroxy-5,5-dimethyl-5,6-dihydro-4H-pyrrolo[1,2-b]pyrazol-3-yl)pyridin-2-yl)cyclohexane-1-carboxamide] |
| 2260 nM | 4 nM | > 2340 nM | 139 nM | CC(=O)N[C@@H]1CCC[C@H](C(=O)Nc2cc(-c3cn[nH]c3CC(C)(C)CO)c(Cl)cn2)C1 [Example 82a, (1S,3R)-3-acetamido-N-(5-chloro-4-(5-(3-hydroxy-2,2-dimethylpropyl)-1H-pyrazol-4-yl)pyridin-2-yl)cyclohexane-1-carboxamide] |

The next lines start with the compound.

| SMILES | IC50 [1] | IC50 [2] | IC50 [3] | IC50 [4] |
| --- | --- | --- | --- | --- |
| CC1(C)Cc2ncc(-c3cc(NC(=O)[C@H]4CCC[C@@H](NC(=O)C5COC5)C4)ncc3Cl)n2C1 [Example 57, N-((1R,3S)-3-((5-chloro-4-(6,6-dimethyl-6,7-dihydro-5H-pyrrolo[1,2-a]imidazol-3-yl)pyridin-2-yl)carbamoyl)cyclohexyl)oxetane-3-carboxamide] | 53 nM | < 3 nM | 28 nM | 4 nM |
| CC1(C)Cc2ncc(-c3cc(NC(=O)[C@H]4C[C@@H](O)C4)ncc3Cl)n2C1 [Example 58, cis-N-(5-chloro-4-(6,6-dimethyl-6,7-dihydro-5H-pyrrolo[1,2-a]imidazol-3-yl)pyridin-2-yl)-3-hydroxycyclobutanecarboxamide] | 76 nM | < 3 nM | 17 nM | 41 nM |
| CC(=O)N[C@@H]1CCC[C@H](C(=O)Nc2cc(-c3cnn4c3CCCC4)c(F)cn2)C1 [Example 63, (1S,3R)-3-acetamido-N-(5-fluoro-4-(4,5,6,7-tetrahydropyrazolo[1,5-a]pyridin-3-yl)pyridin-2-yl)cyclohexanecarboxamide] | 159 nM | < 3 nM | 104 nM | 51 nM |
| CC(=O)N[C@@H]1CCC[C@H](C(=O)Nc2cc(-c3cnn4c3CCCCC4)c(Cl)cn2)C1 [Example 66, (1S,3R)-3-acetamido-N-(5-chloro-4-(5,6,7,8-tetrahydro-4H-pyrazolo[1,5-a]azepin-3-yl)pyridin-2-yl)cyclohexanecarboxamide] | 183 nM | < 3 nM | 92 nM | 23 nM |
| O=C(N[C@@H]1CCC[C@H](C(=O)Nc2cc(-c3cnn4c3CCCC4)c(Cl)cn2)C1)C1COC1 [Example 67, N-((1R,3S)-3-((5-chloro-4-(4,5,6,7-tetrahydropyrazolo[1,5-a]pyridin-3-yl)pyridin-2-yl)carbamoyl)cyclohexyl)oxetane-3-carboxamide] | 99 nM | < 3 nM | 62 nM | 19 nM |
| CC(=O)N[C@@H]1CCC[C@H](C(=O)Nc2cc(-c3cnn4c3CCCCC4)c(F)cn2)C1 [Example 74, (1S,3R)-3-acetamido-N-(5-fluoro-4-(5,6,7,8-tetrahydro-4H-pyrazolo[1,5-a]azepin-3-yl)pyridin-2-yl)cyclohexanecarboxamide] | 281 nM | < 3 nM | 192 nM | 39 nM |
| Cc1cnc(NC(=O)[C@H]2CCC[C@@H](NC(=O)CO)C2)cc1-c1cnn2c1CC(C)(C)C2 [Example 75, (1S,3R)—N-(4-(5,5-dimethyl-5,6-dihydro-4H-pyrrolo[1,2-b]pyrazol-3-yl)-5-methylpyridin-2-yl)-3-(2-hydroxyacetamido)cyclohexanecarboxamide] | 111 nM | < 3 nM | 67 nM | 29 nM |
| Cc1cnc(NC(=O)[C@H]2CCC[C@@H](NC(=O)C3COC3)C2)cc1-c1cnn2c1CC(C)(C)C2 [Example 76, N-((1R,3S)-3-((4-(5,5-dimethyl-5,6-dihydro-4H-pyrrolo[1,2-b]pyrazol-3-yl)-5-methylpyridin-2-yl)carbamoyl)cyclohexyl)oxetane-3-carboxamide] | 36 nM | < 3 nM | 38 nM | 9 nM |
